Experimental findings from article PMC12040169 (PLOS Biology, 2025) are described below.

The first data set in a line: in vitro. To be noted: human, hela cells, % viability.
On to `O=C(O)CC1S/C(=N/N=C/c2ccco2)NC1=O` (centres unmarked) [CBK261371], for which the viability at 28.5 h, 10 µM was found to be 93.7%.
Same read-out and setting: the result for `O=C(N/N=C/C=C/c1ccc([N+](=O)[O-])cc1)C(O)c1ccccc1` (centres unmarked) [CBK261373] reads 81.5%.
On the same count and under the same terms, with `COc1ccc(OCC(=O)N/N=C/c2ccc([N+](=O)[O-])s2)c(I)c1` [CBK261374] the figure was 93.1%; with `O=C(N/N=C\c1cccc2ccccc12)c1ccc(CO)nc1` [CBK261377], 104%; with `C1CN(c2nc(N3CCOCC3)nc(N3CCOCC3)n2)CCN1` [CBK261380], 84.9%.
The same measure, in the same setting: the result for `CC1=C(C(=O)Nc2ccccc2)C(c2cccs2)C(C#N)=C(SCC(=O)c2ccc(Br)cc2)N1` (centres unmarked) [CBK261384] reads 104%.
With `O=C(/C=C\c1ccco1)Oc1ccc(/C=N\NC(=O)c2cncc(Br)c2)cc1` [CBK261385], the viability at 28.5 h, 10 µM came to 83.2%.
On to `CCOc1cc(/C=N/NC(=O)c2cncc(Br)c2)c(Br)c(Br)c1O` [CBK261386], for which the viability at 28.5 h, 10 µM was found to be 86.3%.
Same read-out and setting: the result for `COc1ccccc1/C=N/C12CN3CN(CN(C3)C1)C2` [CBK261387] reads 93%; that for `C=C(C)C(=O)OCCOC(=O)c1cc(N)cc(N)c1` [CBK261389], 101%; that for `O=C1c2ccc3c4c(ccc(c24)C(=O)N1c1ccncc1)C(=O)N(c1ccncc1)C3=O` [CBK261390], 95.4%.
Still for that read-out and setting: with `CC(C)(C)C(=O)Nc1ccc(-c2ccc(NC(=O)C(C)(C)C)c(C(=O)O)c2)cc1C(=O)O` [CBK261392] the figure was 108%; with `CC(C)(C)C(=O)Nc1ccc(Cc2ccc(NC(=O)C(C)(C)C)c(C(=O)O)c2)cc1C(=O)O` [CBK261393], 104%; with `O=C(Nc1ccc(Br)cc1C(=O)O)c1cccc(C(=O)Nc2ccc(Br)cc2C(=O)O)c1` [CBK261395], 90.5%.
Still for that read-out and setting: the result for `O=C1c2ccc(Oc3ccc4c(c3)C(=O)N(c3ccncc3)C4=O)cc2C(=O)N1c1ccncc1` [CBK261399] reads 96.5%; that for `O=C(O)c1ccc(N2C(=O)CC(N3CCN(C/C=C/c4ccccc4)CC3)C2=O)cc1` (centres unmarked) [CBK261402], 92.6%; that for `O=C(NC(C(=O)O)C12CC3CC(CC(C3)C1)C2)c1ccc([N+](=O)[O-])cc1` (centres unmarked) [CBK261405], 94.7%.
Regarding `O=C(NC(Nc1ncccn1)C(Cl)(Cl)Cl)c1ccccc1` (centres unmarked) [CBK261408], the viability at 28.5 h, 10 µM turned out to be 107%.
Still for that read-out and setting: with `O=C1N(Cc2cccc3ccccc23)c2ccccc2C1(c1ccc(O)cc1)c1ccc(O)cc1` [CBK261410] the figure was 88.4%.
Same read-out and setting: the result for `CCOC(=O)CC(=O)Nc1c(Br)cc(Br)cc1C(=O)O` [CBK261412] reads 95.2%; that for `NNC(=O)CCn1c2ccc(Cl)cc2c2cc(Cl)ccc21` [CBK261413], 88.8%; that for `O=C(O)CCn1c2ccc(Cl)cc2c2cc(Cl)ccc21` [CBK261415], 89.5%.
Still for that read-out and setting: with `OC(Cn1cnc(-c2ccccc2)c1-c1ccccc1)Cn1c2ccccc2c2ccccc21` (centres unmarked) [CBK261416] the figure was 78.2%.
As for `OC(CN(c1ccccc1)c1ccccc1)Cn1cnc2ccccc21` (centres unmarked) [CBK261417], the viability at 28.5 h, 10 µM was found to be 86.8%.
Still for that read-out and setting: the result for `Cc1nc([N+](=O)[O-])c(N2CCN(C)CC2)n1Cc1ccccc1` [CBK261421] reads 100%.
The same measure, in the same setting: with `O=C(O)C1CCCN1S(=O)(=O)c1ccc([N+](=O)[O-])cc1` (centres unmarked) [CBK261424] the figure was 89.7%; with `O=C1NCCN/C1=C\C(=O)c1ccc(Br)cc1` [CBK261427], 90.2%.
On the same count and under the same terms, the result for `O=[N+]([O-])c1ccc(-c2nc(-c3ccccc3)c(-c3ccc4oc5ccc(-c6[nH]c(-c7ccc([N+](=O)[O-])cc7)nc6-c6ccccc6)cc5c4c3)[nH]2)cc1` [CBK261434] reads 93.9%; that for `O=C(O)CCC/N=C1/CCCc2ccccc2N1` [CBK261435], 104%; that for `COc1nccnc1NS(=O)(=O)c1ccc(Nc2c([N+](=O)[O-])cc([N+](=O)[O-])c3nonc23)cc1` [CBK261441], 87.5%.
In the case of `CCc1nnc(NS(=O)(=O)c2ccc(Nc3ccc([N+](=O)[O-])c4nonc34)cc2)s1` [CBK261442], the viability at 28.5 h, 10 µM worked out at 92.3%.
Same read-out and setting: with `O=[N+]([O-])c1c(N(CCO)CCO)cc(Cl)c2nonc12` [CBK261446] the figure was 92.5%.
On the same count and under the same terms, the result for `O=[N+]([O-])c1ccc(N(CCO)CCO)c2nonc12` [CBK261447] reads 98.7%; that for `Cc1nnc(NCCO)c2ccccc12` [CBK261448], 112%; that for `Cn1c2ccccc2c2cc(/C=C(/NC(=O)c3ccccc3)C(=O)Nc3cccc(O)c3)ccc21` [CBK261449], 111%.
On the same count and under the same terms, the result for `O=C(Nc1cccc(Br)c1)/C(=C\c1cccnc1)NC(=O)c1ccccc1` [CBK261450] reads 85.8%.
Turning to `O=C(c1ccncc1)C12CN3CN(CN(C3)C1)C2` [CBK261451], the viability at 28.5 h, 10 µM worked out at 97.6%.
On the same count and under the same terms, with `CCCCNS(=O)(=O)c1ccccc1[N+](=O)[O-]` [CBK261456] the figure was 93.1%; with `O=C(N/N=C/c1ccccc1O)c1cccc(C(=O)N/N=C/c2ccccc2O)n1` [CBK261459], 111%; with `O=C(O)c1ccccc1C(=O)OCCN1CCOCC1` [CBK261462], 85.4%.
On the same count and under the same terms, the result for `CCOC(=O)C(Cc1ccccc1)C(=O)Nc1ccc(Cl)cc1` (centres unmarked) [CBK261463] reads 84.2%; that for `CN1C2CCC1CC(OC(=O)CCN1CCCC1)C2` (centres unmarked) [CBK261466], 95.3%; that for `O=C1CCCN1C(=O)CN1CCOCC1` [CBK261467], 117%.
On the same count and under the same terms, with `CCN(CC)CCNc1c(N)c(=O)oc2ccccc12` [CBK261469] the figure was 91.7%; with `O=c1oc2ccccc2c2c1nnn2CCCN1CCOCC1` [CBK261470C], 95.2%.
Take `CN(C)CCNc1c(N)c(=O)oc2ccccc12` [CBK261472]: the viability at 28.5 h, 10 µM amounted to 89.7%.
On the same count and under the same terms, with `O=C(N/N=C\c1ccccc1O)c1nc([N+](=O)[O-])n[nH]1` [CBK261475] the figure was 99.8%; with `CC1(C)Cc2nc3[nH]nc(N)c3cc2CO1` [CBK261476], 93.9%.
Still for that read-out and setting: with `CCC(=O)Nc1nc2ccccc2n1CCN1CCOCC1` [CBK261477] the figure was 101%; with `Cc1n[nH]c(NNC(=O)COc2ccc(Cl)cc2)c1[N+](=O)[O-]` [CBK261478], 98.2%; with `O=C(O)c1ccc(/C=N/NC(=O)C2COc3ccccc3O2)cc1` (centres unmarked) [CBK261481], 100%.
On the same count and under the same terms, with `Cc1[nH]c2ccccc2c1/C=N/NC(=O)C1COc2ccccc2O1` (centres unmarked) [CBK261482] the figure was 90.9%; with `O=[N+]([O-])c1ccc2c(/C=N/c3ccc(-c4nc5ccccc5s4)cc3)c(O)ccc2c1` [CBK261483], 92.3%.
On to `O=C(N/N=C/C1C=Nc2ccccc21)c1cc([N+](=O)[O-])cc([N+](=O)[O-])c1` (centres unmarked) [CBK261485], for which the viability at 28.5 h, 10 µM was 89.8%.
The same measure, in the same setting: the result for `O=[N+]([O-])c1ccc(/C=N/Nc2nnc3c(n2)[nH]c2ccccc23)cc1` [CBK261486] reads 97.8%; that for `O=C1C=C(c2ccc([N+](=O)[O-])cc2)Nc2nonc2N1` [CBK261487], 89.4%; that for `Oc1ccc(SCCCCCN2CCCCC2)cc1` [CBK261488], 92.3%.
On the same count and under the same terms, the result for `Nc1ccc(S(=O)(=O)c2ccc(-n3c(=O)c4cc5c(=O)n(-c6ccc(S(=O)(=O)c7ccc(N)cc7)cc6)c(=O)c5cc4c3=O)cc2)cc1` [CBK261490] reads 92%.
The same measure, in the same setting: with `COc1ccccc1NS(=O)(=O)c1cc(S(=O)(=O)Nc2ccccc2OC)c(C)cc1C` [CBK261493] the figure was 92%; with `CN1CCN(CCC(=O)N/N=C/c2cccc(Br)c2)CC1` [CBK261496], 96.6%.
As for `CN1CCN(CCC(=O)N/N=C/c2ccccc2O)CC1` [CBK261497], the viability at 28.5 h, 10 µM turned out to be 93.1%.
Same read-out and setting: the result for `COc1cc(/C=N/NC(=O)CCN2CCN(C)CC2)cc(OC)c1O` [CBK261500] reads 100%; that for `COc1cc(/C=N\NC(=O)CN2CCN(C)CC2)cc2c1OCO2` [CBK261503], 109%.
The same measure, in the same setting: with `COc1cc(/C=N/NC(=O)CCN2CCN(C)CC2)cc2c1OCO2` [CBK261504] the figure was 116%.
Still for that read-out and setting: with `COc1ccccc1CC(CC(=O)O)C(=O)O` (centres unmarked) [CBK261508] the figure was 91.6%.
Regarding `O=C(CC(C(=O)O)C1CCCO1)Nc1ccc(Cl)cc1Cl` (centres unmarked) [CBK261509], the viability at 28.5 h, 10 µM was found to be 86.2%.
Still for that read-out and setting: with `NS(=O)(=O)c1ccc(N2N=C(c3ccccc3)CC2c2ccccc2)cc1` (centres unmarked) [CBK261511] the figure was 95.9%.
The same measure, in the same setting: the result for `CC1(C)NC(C)(C)C(=N\O)/C(=N\O)C/1=N\O` [CBK261512] reads 110%; that for `CC1=[N+]([O-])C2(N)CCc3nonc3C2(O)C1` (centres unmarked) [CBK261513], 87.9%; that for `CC1(N2CCOCC2)CC2(O)C(=[N+]1[O-])CCc1c2no[n+]1[O-]` (centres unmarked) [CBK261516], 90.5%.
Still for that read-out and setting: with `CN(/N=C\c1ccc([N+](=O)[O-])cc1)c1nc(-c2ccccc2)cc(-c2ccccc2)n1` [CBK261517] the figure was 88.9%; with `O=[N+]([O-])c1ccccc1CN1CCN(C/C=C/c2ccccc2)CC1` [CBK261518], 87.1%.
On to `CN1CCN(c2c(C(=O)O)cc([N+](=O)[O-])cc2[N+](=O)[O-])CC1` [CBK261519], for which the viability at 28.5 h, 10 µM was 100%.
`CC(C)(C)c1cc(CN2CCN(c3ccccn3)CC2)cc(C(C)(C)C)c1O` [CBK261520]: the viability at 28.5 h, 10 µM is 117%.
Still for that read-out and setting: with `O=C(CN1CCCCC1)NN(Cc1ccccc1)c1ccccc1` [CBK261521G] the figure was 103%.

The data set is the same for the next values; noted with them: human, hela cells, % viability, bulk resorufin, single well.
For the molecule `CCOc1ccc(N2C(=O)NC(=O)/C(=C\NC(C)(CO)CO)C2=O)cc1` [CBK261437], the viability at 28.5 h, 10 µM was determined as 99.5%.
Take `O=C1NC(=O)C(=NNc2ccc(S(=O)(=O)O)cc2)C(=O)N1` [CBK261439]: the viability at 28.5 h, 10 µM is 88.7%.
